{
  "source": "patent US20150258197A1",
  "about": "“EUTECTIC ISOMETHEPTENE MUCATE” (TONIX PHARMA HOLDINGS LIMITED, priority 2014, published 2015)",
  "key": {"[1]": {"system": "mice", "experiment": "Formalin Test, late phase (licking score)", "format": "in vivo", "conditions": "mouse, 5% formalin intraplantar, three doses p.o. 15 minutes before the test, 15-50 min after formalin", "text": "Common mouse models for pain include the Formalin Test (Wheeler-Aceto, et al., Psychopharmacology, 104, 35-44, 1991), the Hot Plate Test (Eddy and Leimbach, J. Pharmacol. Exp. Ther., 107, 385-393, 1953), and the Tail-flick Test (D'Amour and Smith, J. Pharmacol. Exp. Ther., 1, 74-79, 1941). These methods detect analgesic activity of compositions of interest. In the Formalin Test, mice are given an intraplantar injection of 5% formalin into one posterior hindpaw to induce paw licking. Test compositions are given to the mice before treatment with formalin and the mice are evaluated and compared to a control group. In the Hot Plate Test, mice are placed onto a hot metal plate maintained at 54° C. and the latency to the first foot-lick is measured. As with the Formalin test, compositions of interest are given to the mice before the test and the mice are evaluated and compared to a control group. In the Tail-flick Test, a mouse's tail is heated by means of a thermal light source, and the latency before the animal withdraws its tail is measured. […]\nMice were given an intraplantar injection of 5% formalin (25 μL) into one posterior hindpaw. […] Mice were briefly observed at one minute intervals between 15 and 50 minutes after the injection of formalin and the number of occasions that the mice were observed licking the injected paw was recorded. […]"}, "[2]": {"system": "Spontaneous trigeminal allodynia (STA) rats", "experiment": "Tactile sensory testing with von Frey monofilaments in STA rats", "format": "in vivo, rat", "conditions": "injected, versus (S)-isometheptene mucate treated or control rats", "text": "Pain, headaches, and migraines have been modeled in animals such as mice and rats. For example, Oshinsky et al. (Oshinsky, M. L., et al., Spontaneous Trigeminal Allodynia in Rats: A Model of Primary Headache, 2012, 52: 1336-1349) describes spontaneous trigeminal allodynia (STA) rats with the inherited trait of spontaneously changing trigeminal von Frey thresholds. These rats are a model of spontaneous headache and can be used as a model of primary headache. Through a series of tactile sensory tests, the periorbital, hind-paw, and jaw-pressure thresholds for STA rats are determined by applying von Frey monofilaments. […] Analgesic activity of the compositions described herein can be evaluated by determining trigeminal von Frey thresholds in STA rats. […]\nSTA rats and litter mates without the trait were injected with compounds selected from (R)-isometheptene mucate and (5)-isometheptene mucate on days when their thresholds in spontaneous allodynia rats were 4 g or below for STA rats. […] Tactile sensory thresholds were recorded prior to and following injections at 0.5 hours, 1.5 hours, 2.5 hours, 3.5 hours, and 24 hours. […]\nPeriorbital, hind-paw, and jaw-pressure thresholds were determined by applying von Frey monofilaments (Stoelting Co., Wood Dale, Ill., USA). […] Left and right threshold data were recorded separately. […]"}},
  "data": [
    {"smiles": "CN[C@H](C)CCC=C(C)C", "note": "[(R)-isometheptene mucate]", "values": [
      {"measurement": "Licking score compared to vehicle", "setting": "[1]", "value": "reduction in licking score"},
      {"measurement": "Tactile sensory (von Frey) threshold values", "setting": "[2]", "value": "dramatic increase in threshold values"}
    ]}
  ]
}
